Experimental data as given in patent publication US12568972B2, “Pyridazinol compounds and derivatives, preparation methods, herbicidal compositions and applications thereof” (Qingdao Kingagroot Chemical Compound Co., Ltd., priority 2018, dated 2026).

What was measured:
Experiment in all cases: Post-emergence test, weed control effect
Assay type in all cases: in vivo
Details in all cases: after 3 weeks
Chenopodiaceae = tested on: Chenopodiaceae
Method in brief: (§1)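 Activity is expressed as a level from 0 (no effect) to 10 (plant dead), each step matching a further 10% fresh-weight inhibition, assessed 3 weeks post-treatment. Treatment: spray at 2-3 leaf stage of pot-grown plants, compound in acetone, Tween-80 and water with 80% vegetable oil methyl ester synergist at 1500 g/ha.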

Rorippa indica = tested on: Rorippa indica
Method in brief: as §1

Amaranthus retroflexus = tested on: Amaranthus retroflexus
Method in brief: as §1

Veronica polita = tested on: Veronica polita
Method in brief: as §1

N#Cc1ccncc1-c1nnc(C(F)(F)F)cc1O [Compound 980]
10: weed control effect (activity level), Chenopodiaceae (Chenopodiaceae; Dose 3000 g/ha) | weed control effect (activity level), Rorippa indica (Rorippa indica; Dose 3000 g/ha) | weed control effect (activity level), Amaranthus retroflexus (Amaranthus retroflexus; Dose 3000 g/ha) | weed control effect (activity level), Veronica polita (Veronica polita; Dose 3000 g/ha)

N#Cc1cccc(-c2nnc(C(F)(F)F)cc2O)c1 [Compound 742]
10: weed control effect (activity level), Chenopodiaceae (Chenopodiaceae; Dose 3000 g/ha) | weed control effect (activity level), Rorippa indica (Rorippa indica; Dose 3000 g/ha) | weed control effect (activity level), Amaranthus retroflexus (Amaranthus retroflexus; Dose 3000 g/ha) | weed control effect (activity level), Veronica polita (Veronica polita; Dose 3000 g/ha)

Cn1cncc1-c1nnc(C(F)(F)F)cc1O [Compound 857]
10: weed control effect (activity level), Chenopodiaceae (Chenopodiaceae; Dose 3000 g/ha) | weed control effect (activity level), Rorippa indica (Rorippa indica; Dose 3000 g/ha) | weed control effect (activity level), Amaranthus retroflexus (Amaranthus retroflexus; Dose 3000 g/ha) | weed control effect (activity level), Veronica polita (Veronica polita; Dose 3000 g/ha)

CCCCCCOC(=S)Oc1cc(C(F)(F)F)nnc1-c1ccc(Cl)c(Cl)c1Cl [Compound 1-160]
10: weed control effect, Chenopodiaceae (activity level) (Chenopodiaceae; Dose 3000 g/ha) | weed control effect, Rorippa indica (activity level) (Rorippa indica; Dose 3000 g/ha) | weed control effect, Amaranthus retroflexus (activity level) (Amaranthus retroflexus; Dose 3000 g/ha) | weed control effect, Veronica polita (activity level) (Veronica polita; Dose 3000 g/ha)

O=[N+]([O-])c1ccc(Cl)c(-c2nnc(C(F)(F)F)cc2O)c1 [Compound 69]
10: weed control effect (activity level), Chenopodiaceae (Chenopodiaceae; dose 1000 g/ha) | weed control effect (activity level), Rorippa indica (Rorippa indica; dose 1000 g/ha) | weed control effect (activity level), Amaranthus retroflexus (Amaranthus retroflexus; dose 1000 g/ha) | weed control effect (activity level), Veronica polita (Veronica polita; dose 1000 g/ha)

Cc1ncoc1C(=O)Oc1cc(C(F)(F)F)nnc1-c1ccc(F)c(F)c1 [Compound 1-108]
10: weed control effect, Chenopodiaceae (activity level) (Chenopodiaceae; Dose 3000 g/ha) | weed control effect, Rorippa indica (activity level) (Rorippa indica; Dose 3000 g/ha) | weed control effect, Amaranthus retroflexus (activity level) (Amaranthus retroflexus; Dose 3000 g/ha) | weed control effect, Veronica polita (activity level) (Veronica polita; Dose 3000 g/ha)

CC(C)=Cc1nnc(C(F)(F)F)cc1O [Compound 1523]
10: weed control effect (activity level), Chenopodiaceae (Chenopodiaceae; Dose 3000 g/ha) | weed control effect (activity level), Rorippa indica (Rorippa indica; Dose 3000 g/ha) | weed control effect (activity level), Amaranthus retroflexus (Amaranthus retroflexus; Dose 3000 g/ha) | weed control effect (activity level), Veronica polita (Veronica polita; Dose 3000 g/ha)

Cn1ncc(C#N)c1-c1nnc(C(F)(F)F)cc1O [Compound 820]
10: weed control effect (activity level), Chenopodiaceae (Chenopodiaceae; Dose 3000 g/ha) | weed control effect (activity level), Rorippa indica (Rorippa indica; Dose 3000 g/ha) | weed control effect (activity level), Amaranthus retroflexus (Amaranthus retroflexus; Dose 3000 g/ha) | weed control effect (activity level), Veronica polita (Veronica polita; Dose 3000 g/ha)

O=C(/C=C\c1ccccc1)Oc1cc(C(F)(F)F)nnc1-c1ccc(Cl)cc1 [Compound 1-96]
10: weed control effect, Chenopodiaceae (activity level) (Chenopodiaceae; Dose 3000 g/ha) | weed control effect, Rorippa indica (activity level) (Rorippa indica; Dose 3000 g/ha) | weed control effect, Amaranthus retroflexus (activity level) (Amaranthus retroflexus; Dose 3000 g/ha) | weed control effect, Veronica polita (activity level) (Veronica polita; Dose 3000 g/ha)

CCc1cccc(-c2nnc(C(F)(F)F)cc2OS(=O)(=O)c2cc3ccccc3s2)c1 [Compound 1-149]
10: weed control effect, Chenopodiaceae (activity level) (Chenopodiaceae; Dose 3000 g/ha) | weed control effect, Rorippa indica (activity level) (Rorippa indica; Dose 3000 g/ha) | weed control effect, Amaranthus retroflexus (activity level) (Amaranthus retroflexus; Dose 3000 g/ha) | weed control effect, Veronica polita (activity level) (Veronica polita; Dose 3000 g/ha)

CN(C)c1cc(-c2nnc(C(F)(F)F)cc2O)n(C)n1 [Compound 787]
10: weed control effect (activity level), Chenopodiaceae (Chenopodiaceae; Dose 3000 g/ha) | weed control effect (activity level), Rorippa indica (Rorippa indica; Dose 3000 g/ha) | weed control effect (activity level), Amaranthus retroflexus (Amaranthus retroflexus; Dose 3000 g/ha) | weed control effect (activity level), Veronica polita (Veronica polita; Dose 3000 g/ha)

Oc1cc(C(F)(F)F)nnc1-c1cncc2ccccc12 [Compound 637]
10: weed control effect (activity level), Chenopodiaceae (Chenopodiaceae; Dose 3000 g/ha) | weed control effect (activity level), Rorippa indica (Rorippa indica; Dose 3000 g/ha) | weed control effect (activity level), Amaranthus retroflexus (Amaranthus retroflexus; Dose 3000 g/ha) | weed control effect (activity level), Veronica polita (Veronica polita; Dose 3000 g/ha)

O=S(=O)(Oc1cc(C(F)(F)F)nnc1-c1ccccc1)c1cc(Cl)c(Cl)cc1Cl [Compound 1-136]
10: weed control effect, Chenopodiaceae (activity level) (Chenopodiaceae; Dose 3000 g/ha) | weed control effect, Rorippa indica (activity level) (Rorippa indica; Dose 3000 g/ha) | weed control effect, Amaranthus retroflexus (activity level) (Amaranthus retroflexus; Dose 3000 g/ha) | weed control effect, Veronica polita (activity level) (Veronica polita; Dose 3000 g/ha)

O=C(Oc1cc(C(F)(F)F)nnc1-c1ccc(F)cc1)c1ccc(Cl)cc1Cl [Compound 1-91]
10: weed control effect, Chenopodiaceae (activity level) (Chenopodiaceae; Dose 3000 g/ha) | weed control effect, Rorippa indica (activity level) (Rorippa indica; Dose 3000 g/ha) | weed control effect, Amaranthus retroflexus (activity level) (Amaranthus retroflexus; Dose 3000 g/ha) | weed control effect, Veronica polita (activity level) (Veronica polita; Dose 3000 g/ha)

Oc1cc(C(F)(F)F)nnc1-c1c(F)c(F)c(F)c(F)c1F [Compound 55]
10: weed control effect (activity level), Chenopodiaceae (Chenopodiaceae; dose 1000 g/ha) | weed control effect (activity level), Rorippa indica (Rorippa indica; dose 1000 g/ha) | weed control effect (activity level), Amaranthus retroflexus (Amaranthus retroflexus; dose 1000 g/ha) | weed control effect (activity level), Veronica polita (Veronica polita; dose 1000 g/ha)

CC(C)n1nc(F)cc1-c1nnc(C(F)(F)F)cc1O [Compound 830]
10: weed control effect (activity level), Chenopodiaceae (Chenopodiaceae; Dose 3000 g/ha) | weed control effect (activity level), Rorippa indica (Rorippa indica; Dose 3000 g/ha) | weed control effect (activity level), Amaranthus retroflexus (Amaranthus retroflexus; Dose 3000 g/ha) | weed control effect (activity level), Veronica polita (Veronica polita; Dose 3000 g/ha)

Oc1cc(C(F)(F)F)nnc1-c1c(Cl)ccnc1Cl [Compound 993]
10: weed control effect (activity level), Chenopodiaceae (Chenopodiaceae; Dose 3000 g/ha) | weed control effect (activity level), Rorippa indica (Rorippa indica; Dose 3000 g/ha) | weed control effect (activity level), Amaranthus retroflexus (Amaranthus retroflexus; Dose 3000 g/ha) | weed control effect (activity level), Veronica polita (Veronica polita; Dose 3000 g/ha)

O=C(Oc1cc(C(F)(F)F)nnc1-c1ccc(F)cc1)c1ccccc1O [Compound 1-85]
10: weed control effect, Chenopodiaceae (activity level) (Chenopodiaceae; Dose 3000 g/ha) | weed control effect, Rorippa indica (activity level) (Rorippa indica; Dose 3000 g/ha) | weed control effect, Amaranthus retroflexus (activity level) (Amaranthus retroflexus; Dose 3000 g/ha) | weed control effect, Veronica polita (activity level) (Veronica polita; Dose 3000 g/ha)
